Data as given in patent US10711041B2, “Lyophilisate containing a cyclic peptide of formula X1-[sequence]-X2” (priority 2013, dated 2020).

Assays:
[1] = target: T1, amilorid-sensitive Sodium Ion Channel (ENaC) (Homo sapiens, UniProt P37088); assay: Patch Clamp whole cell sodium current in deglycosylated (PNGase F) and untreated A549 cells; type: cell-based; conditions: pre-treatment with PNGase F, peptide 240 nM, Eh = −100 mV
T1 construct: Macroscopic Sodium Ion Currents were derived from human lung epithelian cells A549; endogenous in cells; host or cells: A549 human lung epithelial cells
T1 sequence (P37088 1-669): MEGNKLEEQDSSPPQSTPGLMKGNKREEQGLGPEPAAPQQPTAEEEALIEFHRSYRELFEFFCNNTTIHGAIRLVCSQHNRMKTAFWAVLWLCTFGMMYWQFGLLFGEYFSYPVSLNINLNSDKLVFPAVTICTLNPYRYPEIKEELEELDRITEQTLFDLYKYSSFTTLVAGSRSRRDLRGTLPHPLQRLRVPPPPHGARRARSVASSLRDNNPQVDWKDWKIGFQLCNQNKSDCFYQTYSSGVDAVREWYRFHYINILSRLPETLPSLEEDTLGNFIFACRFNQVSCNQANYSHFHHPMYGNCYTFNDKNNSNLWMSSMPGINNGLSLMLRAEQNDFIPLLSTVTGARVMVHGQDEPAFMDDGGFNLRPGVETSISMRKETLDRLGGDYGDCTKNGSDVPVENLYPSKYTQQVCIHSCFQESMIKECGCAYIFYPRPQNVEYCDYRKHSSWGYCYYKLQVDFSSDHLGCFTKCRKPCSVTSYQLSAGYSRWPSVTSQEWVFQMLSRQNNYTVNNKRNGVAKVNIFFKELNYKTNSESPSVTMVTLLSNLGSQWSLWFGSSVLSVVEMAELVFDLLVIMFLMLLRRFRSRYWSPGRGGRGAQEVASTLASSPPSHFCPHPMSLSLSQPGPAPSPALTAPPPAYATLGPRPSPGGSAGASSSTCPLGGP
T1 sequence (P51168 1-640 partner): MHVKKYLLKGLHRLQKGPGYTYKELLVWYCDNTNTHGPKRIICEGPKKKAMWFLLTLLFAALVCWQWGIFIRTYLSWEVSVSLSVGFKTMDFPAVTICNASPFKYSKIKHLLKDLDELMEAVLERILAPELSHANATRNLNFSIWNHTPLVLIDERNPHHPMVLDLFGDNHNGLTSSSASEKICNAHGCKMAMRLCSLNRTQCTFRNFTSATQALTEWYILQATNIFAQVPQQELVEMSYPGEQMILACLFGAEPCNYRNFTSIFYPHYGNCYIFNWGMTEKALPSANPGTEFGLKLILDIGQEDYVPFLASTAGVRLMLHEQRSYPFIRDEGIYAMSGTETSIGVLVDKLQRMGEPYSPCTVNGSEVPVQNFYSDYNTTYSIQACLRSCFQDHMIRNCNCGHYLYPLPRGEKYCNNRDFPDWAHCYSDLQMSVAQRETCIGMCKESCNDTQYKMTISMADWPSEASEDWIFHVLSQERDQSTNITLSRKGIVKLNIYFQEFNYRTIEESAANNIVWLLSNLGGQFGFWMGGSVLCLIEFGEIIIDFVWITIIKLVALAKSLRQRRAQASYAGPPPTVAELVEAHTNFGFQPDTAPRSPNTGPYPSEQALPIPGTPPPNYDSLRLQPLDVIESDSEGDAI
T1 sequence (P51170 1-649 partner): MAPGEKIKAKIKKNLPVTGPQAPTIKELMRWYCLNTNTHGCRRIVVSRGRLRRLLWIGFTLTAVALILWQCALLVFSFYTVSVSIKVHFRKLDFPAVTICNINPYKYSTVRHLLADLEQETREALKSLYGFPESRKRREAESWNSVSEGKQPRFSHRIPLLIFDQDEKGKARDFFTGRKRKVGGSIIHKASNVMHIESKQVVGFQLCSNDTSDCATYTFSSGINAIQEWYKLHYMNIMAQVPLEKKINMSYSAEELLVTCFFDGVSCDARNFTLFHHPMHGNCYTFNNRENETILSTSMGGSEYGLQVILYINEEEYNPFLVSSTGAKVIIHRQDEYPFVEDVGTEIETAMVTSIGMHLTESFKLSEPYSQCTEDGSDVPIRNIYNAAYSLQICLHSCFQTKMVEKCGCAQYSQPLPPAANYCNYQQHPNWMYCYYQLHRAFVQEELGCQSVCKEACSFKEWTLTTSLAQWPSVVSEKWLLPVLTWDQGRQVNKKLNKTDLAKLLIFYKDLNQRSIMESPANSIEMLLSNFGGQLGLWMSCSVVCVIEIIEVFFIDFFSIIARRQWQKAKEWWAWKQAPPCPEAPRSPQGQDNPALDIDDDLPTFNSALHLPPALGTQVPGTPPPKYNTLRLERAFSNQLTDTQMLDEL
Description: […] After control recordings, 240 nM of the peptide of amino acid sequence SEQ ID NO:1 was added to the bath solution. […] Whole cell currents were recorded at Eh=−100 mV. The concentration of the peptides of amino acid sequence SEQ ID NO:1 to SEQ ID NO:7 in the bath solution was 240 nM.

[2] = Stability investigation of the lyophilisate (visual inspection, reverse HPLC); type: physicochemical
Description: For that the lyophilisate was stored up to 24 months at 2 to 8° C. and up to 6 months at 25° C. at 60% relative humidity. Stability was investigated at different time points during that period. In particular the appearance, contents, as well as purity of the cyclic peptides were investigated. For that laboratory-common analytical processes were used, such as e.g. visual inspection and reverse HPLC.

[3] = storage 2-8° C., T = 0 to T = 24 M
[4] = storage 25° C./60% rH, T = 0 to T = 6 M

Structure (SMILES) | whole cell sodium current [1] | Amount/Contents of lyophilisate ([2]; storage 2-8° C., T = 0) [%] | Purity of lyophilisate (stability study) ([2]; storage 2-8° C., T = 0) [%] | Appearence of lyophilisate [2, 3] | Amount/Contents of lyophilisate ([2]; storage 2-8° C., T = 24 M) [%] | Purity of lyophilisate (stability study) ([2]; storage 2-8° C., T = 24 M) [%] | Amount/Contents of lyophilisate ([2]; storage 25° C./60% rH, T = 0) [%] | Purity of lyophilisate (stability study) ([2]; storage 25° C./60% rH, T = 0) [%] | Appearence of lyophilisate [2, 4] | Amount/Contents of lyophilisate ([2]; storage 25° C./60% rH, T = 6 M) [%] | Purity of lyophilisate (stability study) ([2]; storage 25° C./60% rH, T = 6 M) [%]
C[C@@H]1NC(=O)CNC(=O)[C@H](CCC(=O)O)NC(=O)[C@@H]2CCCN2C(=O)[C@H]([C@@H](C)O)NC(=O)[C@H](CCC(=O)O)NC(=O)[C@H](CCCNC(=N)N)NC(=O)[C@H](CCC(N)=O)NC(=O)CNC(=O)[C@@H](N)CCCNC(=O)CNC(=O)[C@H](Cc2ccc(O)cc2)NC(=O)[C@H](Cc2c[nH]c3ccccc23)NC(=O)[C@@H]2CCCN2C(=O)[C@H](CCCCN)NC(=O)[C@H](C)NC(=O)[C@H](CCC(=O)O)NC1=O [SEQ ID NO: 4] | 22.5 pA (n = 3) | 100 | 97 | white powder | 99 | 97 | 100 | 97 | white powder | 99 | 96
C[C@@H]1NC(=O)CNC(=O)[C@H](CCC(=O)O)NC(=O)[C@@H]2CCCN2C(=O)[C@H]([C@@H](C)O)NC(=O)[C@H](CCC(=O)O)NC(=O)[C@H](CCCNC(=N)N)NC(=O)[C@H](CCC(N)=O)NC(=O)CNC(=O)CCNC(=O)CC[C@@H](C(=O)O)NC(=O)[C@H](Cc2ccc(O)cc2)NC(=O)[C@H](Cc2c[nH]c3ccccc23)NC(=O)[C@@H]2CCCN2C(=O)[C@H](CCCCN)NC(=O)[C@H](C)NC(=O)[C@H](CCC(=O)O)NC1=O [SEQ ID NO: 6] | 19.9 pA (n = 3) | 100 | 99 | white powder | 99 | 99 | 100 | 99 | white powder | 99 | 98
C[C@@H]1NC(=O)CNC(=O)[C@H](CCC(=O)O)NC(=O)[C@@H]2CCCN2C(=O)[C@H]([C@@H](C)O)NC(=O)[C@H](CCC(=O)O)NC(=O)[C@H](CCCNC(=N)N)NC(=O)[C@H](CCC(N)=O)NC(=O)CNC(=O)CCCNC(=O)C[C@@H](C(=O)O)NC(=O)[C@H](Cc2ccc(O)cc2)NC(=O)[C@H](Cc2c[nH]c3ccccc23)NC(=O)[C@@H]2CCCN2C(=O)[C@H](CCCCN)NC(=O)[C@H](C)NC(=O)[C@H](CCC(=O)O)NC1=O [SEQ ID NO: 5] | 22.4 pA (n = 3) | 100 | 99 | white powder | 99 | 99 | 100 | 99 | white powder | 99 | 98
C[C@@H]1NC(=O)CNC(=O)[C@H](CCC(=O)O)NC(=O)[C@@H]2CCCN2C(=O)[C@H]([C@@H](C)O)NC(=O)[C@H](CCC(=O)O)NC(=O)[C@H](CCCNC(=N)N)NC(=O)[C@H](CCC(N)=O)NC(=O)CNC(=O)[C@@H]2CCCN2C(=O)[C@H](CO)NC(=O)[C@@H](N)CCCCNC(=O)CC[C@@H](C(=O)O)NC(=O)[C@H](Cc2ccc(O)cc2)NC(=O)[C@H](Cc2c[nH]c3ccccc23)NC(=O)[C@@H]2CCCN2C(=O)[C@H](CCCCN)NC(=O)[C@H](C)NC(=O)[C@H](CCC(=O)O)NC1=O [SEQ ID NO: 2] | 21.3 pA (n = 3) | 100 | 96 | white powder | 99 | 96 | 100 | 96 | white powder | 99 | 95
C[C@@H]1NC(=O)CNC(=O)[C@H](CCC(=O)O)NC(=O)[C@@H]2CCCN2C(=O)[C@H]([C@@H](C)O)NC(=O)[C@H](CCC(=O)O)NC(=O)[C@H](CCCNC(=N)N)NC(=O)[C@H](CCC(N)=O)NC(=O)CNC(=O)[C@@H](N)CCCCNC(=O)CNC(=O)[C@H](Cc2ccc(O)cc2)NC(=O)[C@H](Cc2c[nH]c3ccccc23)NC(=O)[C@@H]2CCCN2C(=O)[C@H](CCCCN)NC(=O)[C@H](C)NC(=O)[C@H](CCC(=O)O)NC1=O [SEQ ID NO: 3] | 20.6 pA (n = 3) | 100 | 98 | white powder | 99 | 98 | 100 | 98 | white powder | 99 | 97
